According to patent US20060063759A1, “Tricyclic steroid hormone nuclear receptor modulators” (priority 2002, published 2006):

What was measured:
glucocorticoid receptor = biological target: T1, glucocorticoid receptor (Homo sapiens, UniProt P04150); experiment: Glucocorticoid Receptor Binding Assay ([3H]-dexamethasone, A549 cell extract); conditions: [3H]-dexamethasone binding, read-out: GR Ki
T1 construct: containing 50-200 ug of A549 cell extract and 1.86 nM [^3H]-dexamethasone; host or cells: A549 human lung epithelial cells (sonicated cell extract)
T1 sequence (P04150 1-777): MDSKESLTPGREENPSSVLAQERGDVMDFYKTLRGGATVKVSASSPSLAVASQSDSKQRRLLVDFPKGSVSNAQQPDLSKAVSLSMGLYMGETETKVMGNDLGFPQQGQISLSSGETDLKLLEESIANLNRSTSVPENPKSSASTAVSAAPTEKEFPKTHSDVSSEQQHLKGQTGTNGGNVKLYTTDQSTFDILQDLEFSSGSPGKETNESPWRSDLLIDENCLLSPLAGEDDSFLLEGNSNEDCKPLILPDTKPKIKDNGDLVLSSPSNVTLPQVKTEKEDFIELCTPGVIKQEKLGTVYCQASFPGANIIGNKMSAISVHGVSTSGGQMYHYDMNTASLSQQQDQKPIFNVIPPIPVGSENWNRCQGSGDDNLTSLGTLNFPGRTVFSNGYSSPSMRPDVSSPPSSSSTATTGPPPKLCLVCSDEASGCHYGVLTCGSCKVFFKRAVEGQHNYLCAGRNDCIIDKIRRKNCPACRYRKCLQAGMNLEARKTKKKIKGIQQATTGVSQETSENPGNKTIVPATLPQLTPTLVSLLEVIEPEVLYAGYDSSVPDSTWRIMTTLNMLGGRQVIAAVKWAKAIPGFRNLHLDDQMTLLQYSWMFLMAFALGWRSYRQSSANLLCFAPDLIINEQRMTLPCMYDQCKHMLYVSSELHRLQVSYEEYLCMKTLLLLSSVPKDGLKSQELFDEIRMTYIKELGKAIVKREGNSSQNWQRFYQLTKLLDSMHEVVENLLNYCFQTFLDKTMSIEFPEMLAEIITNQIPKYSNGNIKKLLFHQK
Procedure: All ligands, radioligands, solvents, and reagents employed in the binding assays are readily available from commercial sources, or can be readily synthesized by the ordinarily skilled artisan.
A549 human lung epithelial cells (ATCC) are grown at a scale where gram quantity cell pellets are obtained. Harvested cell pellets are washed twice in cold phosphate buffered saline, centrifuged, and resuspended in cold assay binding buffer. The assay binding buffer consists of 10% glycerol, 50 mM Tris-HCl (pH7.2), 75 mM sodium chloride, 1.5 mM magnesium chloride, 1.5 mM EDTA, and 10 mM sodium molybdate. Cell suspensions were lysed via sonication, centrifuged, and the “extract” supernatant is snap frozen and stored at −80 C until needed.
GR binding assays are performed in a final volume of 140 ul containing 50-200 ug of A549 cell extract and 1.86 nM [^3H]-dexamethasone (Amersham) plus varying concentrations of test compound or vehicle. Briefly, assays are prepared at RT in 96-well Fisher 3356 plates, each well containing 100 ul of A549 cell extract, 20 ul of [^3H]-dexamethasone, and 20 ul of test compound/vehicle. Incubations are carried out at 4 degrees Celsius for 16 hours. After incubation, 70 ul of 3× dextran-coated charcoal solution is added to each reaction, mixed, and incubated for 8 minutes at RT. 3×-dextran-coated charcoal solution consists of 250 ml assay binding buffer, 3.75 g Norit A charcoal (Sigma), and 1.25 g dextran T-70 (Amersham). Charcoal/unbound radioligand complexes are removed by centrifugation of the plate and 140 ul of supernatant from each well is transferred to another 96 well Optiplate (Packard Instruments). 200 ul of Microscint-20 scinillant (Packard Instruments) is added to each well and amount of receptor bound radioligand is determined using Packard Instruments TopCount instrument.

human MR = biological target: T2, human MR (Homo sapiens, UniProt P08235); experiment: Mineralocorticoid Receptor Binding Assay ([3H]-aldosterone); conditions: [3H]-aldosterone binding, human MR expressed in Sf9 cells; read-out: MR Ki
T2 construct: The full length human MR gene is cloned from a human kidney or human brain cDNA library; His tag from the pAcHLT vector (own knowledge); made in house; host or cells: Sf9 insect cells (baculovirus, pAcHLT transfer vector)
T2 sequence (P08235 1-984): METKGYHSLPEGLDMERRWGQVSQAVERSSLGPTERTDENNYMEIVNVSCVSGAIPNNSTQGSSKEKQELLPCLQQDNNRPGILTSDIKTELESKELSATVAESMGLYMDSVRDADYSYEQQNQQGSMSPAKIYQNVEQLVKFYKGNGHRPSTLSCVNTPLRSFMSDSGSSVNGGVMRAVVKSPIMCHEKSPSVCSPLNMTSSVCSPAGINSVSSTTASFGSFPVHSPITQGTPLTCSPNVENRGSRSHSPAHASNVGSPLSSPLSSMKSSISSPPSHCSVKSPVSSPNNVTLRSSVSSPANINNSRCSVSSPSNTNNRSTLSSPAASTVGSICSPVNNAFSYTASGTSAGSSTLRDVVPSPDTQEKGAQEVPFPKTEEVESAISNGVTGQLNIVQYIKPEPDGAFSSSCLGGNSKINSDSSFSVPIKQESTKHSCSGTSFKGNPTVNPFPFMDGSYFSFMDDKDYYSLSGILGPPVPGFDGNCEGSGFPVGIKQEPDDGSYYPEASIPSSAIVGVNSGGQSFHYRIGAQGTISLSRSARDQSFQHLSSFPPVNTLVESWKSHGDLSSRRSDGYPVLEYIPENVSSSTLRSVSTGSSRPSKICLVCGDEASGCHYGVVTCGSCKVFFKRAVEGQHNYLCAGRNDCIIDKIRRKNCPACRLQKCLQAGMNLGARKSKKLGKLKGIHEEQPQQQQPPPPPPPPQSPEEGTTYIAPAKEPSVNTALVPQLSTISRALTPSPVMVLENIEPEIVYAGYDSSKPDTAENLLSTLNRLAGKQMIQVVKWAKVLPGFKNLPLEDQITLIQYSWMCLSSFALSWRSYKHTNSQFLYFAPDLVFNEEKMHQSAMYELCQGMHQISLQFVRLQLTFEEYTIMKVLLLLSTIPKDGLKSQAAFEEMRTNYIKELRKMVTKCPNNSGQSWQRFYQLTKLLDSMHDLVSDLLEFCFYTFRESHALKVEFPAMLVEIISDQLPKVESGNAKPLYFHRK
How it was run: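 Lysate supernatant of Sf9 cells expressing full-length human MR (20-25 μg protein) was incubated with 0.5 nM [3H]-aldosterone and test compound in molybdate/Tris/phosphate/glycerol buffer, pH 7.5, ~16 h at 4 °C. Bound ligand was filtered and counted by scintillation; IC50 is the concentration halving [3H]-aldosterone binding.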

Ki (glucocorticoid receptor) | Ki (human MR) | SMILES
< 500 nM | < 500 nM | COc1cccc(C=C2c3cc(Cl)ccc3NC(=O)c3ccccc32)c1 [Example 654]
< 500 nM | < 500 nM | C/C(=C1\c2ccccc2COc2cc(F)ccc21)c1cccc(NS(C)(=O)=O)c1 [Example 808]
< 1000 nM | < 500 nM | O=c1[nH]c2ccc(C=C3c4cc(Cl)ccc4COc4ccccc43)cc2[nH]1 [Example 715]
< 500 nM | < 500 nM | CS(=O)(=O)Nc1cccc(/C=C2\c3ccccc3CCc3cc(C(F)(F)F)ccc32)c1 [Example 391]
< 10000 nM | < 500 nM | Fc1ccc2c(c1)CCc1ncccc1/C2=C/c1ccccc1 [Example 526]
< 1000 nM | < 500 nM | O=c1[nH]c2cc(/C=C3\c4ccccc4COc4cc(F)ccc43)ccc2n1C1CC1 [Example 609, 1-cyclopropyl-5-(3-fluoro-6H-dibenzo[b,e]oxepin-11-ylidenemethyl)-1,3-dihydro-benzoimidazol-2-one]
< 10000 nM | < 500 nM | CN(C)C(=O)Nc1cccc(C=C2c3ccccc3CCc3cc(Cl)ccc32)c1 [Example 397]
< 500 nM | < 500 nM | O=C1Cc2c(C=C3c4ccccc4CCc4ccccc43)cccc2N1 [Example 224, 4-(10,11-Dihydro-dibenzo[a,d]cyclohepten-5-ylidenemethyl)-1,3-dihydro-indol-2-one]

The remaining lines, values behind:

SMILES | Ki (glucocorticoid receptor) | Ki (human MR)
Fc1ccc2c(c1)CCc1ccccc1C2=Cc1cccnc1F [Example 474] | < 1000 nM | < 500 nM
CN1C(=O)c2ccccc2C(=Cc2cccc(N)c2)c2ccccc21 [Example 651] | < 1000 nM | < 500 nM
Fc1ccc(/C=C2\c3ccc(F)cc3CCc3ncccc32)cc1 [Example 580] | < 10000 nM | < 500 nM
Oc1ccc(F)c(C=C2c3ccccc3CCc3ccccc32)c1 [Example 151, 3-(10,11-Dihydro-dibenzo[a,d]cyclohepten-5-ylidenemethyl)-4-fluoro-phenol] | < 1000 nM | < 500 nM
CC(=O)Nc1cccc(C=C2c3ccccc3CCc3ccccc32)c1 [Example 114, N-[3-(10,11-Dihydro-dibenzo[a,d]cyclohepten-5-ylidenemethyl)-phenyl]-acetamide] | < 500 nM | < 500 nM
Oc1cccc(C=C2c3ccccc3CCc3c2ccc(Cl)c3Cl)c1 [198(b), 3-(1,2-Dichloro-10,11-dihydro-dibenzo[a,d]cyclohepten-5-ylidenemethyl)-phenol] | < 1000 nM | < 500 nM
CS(=O)(=O)Nc1cccc(/C=C2/c3ccccc3CCc3cc(N)ccc32)c1 [Example 408] | < 500 nM | < 500 nM
O=S(=O)(CC(F)(F)F)Nc1cccc(C=C2c3ccc(Cl)cc3CSc3cc(Cl)ccc32)c1 [Example 721] | < 500 nM | < 500 nM
Oc1cccc(/C=C2/c3ccccc3CCc3c(O)cccc32)c1 [Example 377] | < 10000 nM | < 500 nM
CS(=O)(=O)Nc1cccc(/C=C2/c3ccccc3CCc3cc(C#N)ccc32)c1 [Example 342] | < 500 nM | < 500 nM
CS(=O)(=O)Nc1ccc(C=C2c3ccccc3CCc3c(Cl)cccc32)cc1 (mixture of isomers) [Example 210, N-[4-(1-Chloro-10,11-dihydro-dibenzo[a,d]cyclohepten-5ylidenemethyl)-phenyl]-methanesulfonamide] | < 1000 nM | < 500 nM
CC/C(=C1\c2ccccc2COc2ccccc21)c1cccc(NS(C)(=O)=O)c1 [Example 799] | < 500 nM | < 500 nM
COc1ccc2c(c1)CCc1cc(C)ccc1/C2=C\c1cccc(NS(C)(=O)=O)c1 [Example 423] | < 500 nM | < 500 nM
O/N=C/c1ccccc1C=C1c2ccccc2CCc2ccccc21 [Example 77, 2-(10,11-Dihydro-dibenzo[a,d]cyclohepten-5-ylidenemethyl)-benzaldehyde oxime] | < 500 nM | < 500 nM
O=S(=O)(Nc1cccc(/C=C2/c3ccccc3CCc3sccc32)c1)c1ccccc1 [Example 503] | < 500 nM | < 500 nM
